Test results: publication PMC9228270, “Design, Synthesis, In Silico Studies and Inhibitory Activity towards Bcr-Abl, BTK and FLT3-ITD of New 2,6,9-Trisubstituted Purine Derivatives as Potential Agents for the Treatment of Leukaemia” (Pharmaceutics, 2022)

Tests used:
Bcr-Abl1 = Bcr-Abl1 (Homo sapiens, UniProt P00519); experiment: Recombinant kinase radioassay, Abl; format: biochemical; conditions: ATP 1 µM, at least three independent experiments, range 0.01–100 µM
Description: (§1) Recombinant kinase inhibition was measured using standard radioassay. Bcr-Abl1 and Cdk-2/cyclin E kinases were produced in-house, FLT3-ITD and BTK were purchased from ProQinase. The kinases were assayed with suitable substrates (500 µM peptide […] for Abl, 1 mg/mL histone H1 for Cdk-2, 100 µM poly (Glu:Tyr; 4:1)) in the presence of ATP (1 µM for Bcr-Abl, 15 µM for Cdk-2 and BTK), 0.05 µCi [γ-^33P]ATP and the test compound in reaction buffer (60 mM HEPES-NaOH, pH 7.5, 3 mM MgCl2, 3 mM MnCl2, 3 µM Na orthovanadate, 1.2 mM DTT, 2.5 µg/50 µL PEG20.000). The reactions were stopped by adding 3% aq. H3PO4. P-81 phosphocellulose (Whatman) was used to separate phosphorylated substrates. Kinase activity was quantified using a FLA-7000 digital image analyser.

BTK = biological target: T1, BTK (Homo sapiens, UniProt Q06187); experiment: Recombinant kinase radioassay, BTK; format: biochemical; conditions: recombinant kinase, radioassay, ATP 15 µM; at least three independent experiments, range 0.01–100 µM; read-out: IC50 BTK
T1 construct: purchased ProQinase
T1 sequence (Q06187 whole entry): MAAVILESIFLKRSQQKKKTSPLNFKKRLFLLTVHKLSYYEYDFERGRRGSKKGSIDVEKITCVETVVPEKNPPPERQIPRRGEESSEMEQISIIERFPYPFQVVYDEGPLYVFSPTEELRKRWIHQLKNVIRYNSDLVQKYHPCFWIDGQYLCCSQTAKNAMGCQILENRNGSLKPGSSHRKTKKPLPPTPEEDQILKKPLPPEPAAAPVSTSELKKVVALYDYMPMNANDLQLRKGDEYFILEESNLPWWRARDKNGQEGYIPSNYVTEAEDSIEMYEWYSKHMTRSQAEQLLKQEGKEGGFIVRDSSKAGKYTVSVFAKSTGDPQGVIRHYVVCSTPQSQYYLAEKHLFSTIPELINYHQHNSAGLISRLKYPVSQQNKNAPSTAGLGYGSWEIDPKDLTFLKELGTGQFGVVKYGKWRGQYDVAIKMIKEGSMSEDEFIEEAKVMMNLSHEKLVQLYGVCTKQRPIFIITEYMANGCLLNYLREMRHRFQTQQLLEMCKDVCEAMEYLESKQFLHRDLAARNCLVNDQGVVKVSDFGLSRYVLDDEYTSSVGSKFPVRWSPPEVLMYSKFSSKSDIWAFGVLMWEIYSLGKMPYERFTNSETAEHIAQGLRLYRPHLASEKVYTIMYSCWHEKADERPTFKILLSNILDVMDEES
Description: as §1

Cdk-2/cyclin E = biological target: T2, Cdk-2/cyclin E (Homo sapiens, UniProt P24941); experiment: Recombinant kinase radioassay, Cdk-2/cyclin E; format: biochemical; conditions: ATP 15 µM, at least three independent experiments, range 0.01–100 µM
T2 construct: made in house
Description: as §1

K562 = experiment: Cytotoxicity assay (resazurin), K562; format: cell-based; conditions: Homo sapiens, 72 h, three independent experiments, range 0.1 to 25 µM
Description: (§2) Cytotoxicity assays for the purines were quantified using the resazurin method, a dye to measure redox reactions occurring in the mitochondria of live cells. The cells were treated by tested compounds (in triplicate, six different doses) for 72 h.

HL-60 = experiment: Cytotoxicity assay (resazurin), HL-60; format: cell-based; conditions: Homo sapiens, 72 h, three independent experiments, range 0.1 to 25 µM
Description: as §2

MV4-11 = experiment: Cytotoxicity assay (resazurin), MV4-11; format: cell-based; conditions: Homo sapiens, 72 h, three independent experiments, range 0.1 to 25 µM
Description: as §2

Ramos = experiment: Cytotoxicity assay (resazurin), Ramos; format: cell-based; conditions: Homo sapiens, 72 h, three independent experiments, range 0.1 to 25 µM
Description: as §2

CEM = experiment: Cytotoxicity assay (resazurin), CEM; format: cell-based; conditions: Homo sapiens, CCRF-CEM, 72 h, three independent experiments, range 0.1 to 25 µM
Description: as §2

FLT3-ITD = biological target: T3, FLT3-ITD (Homo sapiens, UniProt P36888, ITD); experiment: Recombinant kinase radioassay, FLT3-ITD; format: biochemical; conditions: recombinant kinase, radioassay; at least three independent experiments, range 0.01–100 µM; read-out: IC50 FLT3-ITD
T3 sequence (P36888 27-993): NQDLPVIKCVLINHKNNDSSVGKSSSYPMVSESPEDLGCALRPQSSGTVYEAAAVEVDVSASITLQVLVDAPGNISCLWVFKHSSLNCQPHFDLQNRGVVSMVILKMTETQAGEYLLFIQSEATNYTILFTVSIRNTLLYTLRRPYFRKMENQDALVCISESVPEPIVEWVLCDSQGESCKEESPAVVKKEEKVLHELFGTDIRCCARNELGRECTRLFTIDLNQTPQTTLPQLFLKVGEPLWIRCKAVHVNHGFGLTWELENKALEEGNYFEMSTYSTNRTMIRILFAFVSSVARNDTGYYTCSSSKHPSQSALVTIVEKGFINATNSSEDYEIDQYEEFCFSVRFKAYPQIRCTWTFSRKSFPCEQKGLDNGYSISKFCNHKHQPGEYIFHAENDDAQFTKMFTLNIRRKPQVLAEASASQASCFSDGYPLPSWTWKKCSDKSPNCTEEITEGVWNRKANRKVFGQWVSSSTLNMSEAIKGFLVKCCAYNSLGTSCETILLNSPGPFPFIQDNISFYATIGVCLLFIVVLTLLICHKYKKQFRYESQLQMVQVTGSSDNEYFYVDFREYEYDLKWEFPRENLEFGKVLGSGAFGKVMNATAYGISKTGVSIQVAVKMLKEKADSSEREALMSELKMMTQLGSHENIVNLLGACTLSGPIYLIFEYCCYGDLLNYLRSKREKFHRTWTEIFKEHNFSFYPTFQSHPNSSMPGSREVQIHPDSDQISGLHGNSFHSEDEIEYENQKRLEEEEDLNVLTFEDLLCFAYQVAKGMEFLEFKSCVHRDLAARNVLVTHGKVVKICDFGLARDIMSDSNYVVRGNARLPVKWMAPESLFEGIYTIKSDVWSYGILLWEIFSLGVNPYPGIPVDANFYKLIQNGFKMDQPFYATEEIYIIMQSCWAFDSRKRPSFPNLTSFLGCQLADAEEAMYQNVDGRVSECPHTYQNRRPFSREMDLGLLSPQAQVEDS
Description: as §1

Chain of Bcr-Abl1 (P00519 27-1130): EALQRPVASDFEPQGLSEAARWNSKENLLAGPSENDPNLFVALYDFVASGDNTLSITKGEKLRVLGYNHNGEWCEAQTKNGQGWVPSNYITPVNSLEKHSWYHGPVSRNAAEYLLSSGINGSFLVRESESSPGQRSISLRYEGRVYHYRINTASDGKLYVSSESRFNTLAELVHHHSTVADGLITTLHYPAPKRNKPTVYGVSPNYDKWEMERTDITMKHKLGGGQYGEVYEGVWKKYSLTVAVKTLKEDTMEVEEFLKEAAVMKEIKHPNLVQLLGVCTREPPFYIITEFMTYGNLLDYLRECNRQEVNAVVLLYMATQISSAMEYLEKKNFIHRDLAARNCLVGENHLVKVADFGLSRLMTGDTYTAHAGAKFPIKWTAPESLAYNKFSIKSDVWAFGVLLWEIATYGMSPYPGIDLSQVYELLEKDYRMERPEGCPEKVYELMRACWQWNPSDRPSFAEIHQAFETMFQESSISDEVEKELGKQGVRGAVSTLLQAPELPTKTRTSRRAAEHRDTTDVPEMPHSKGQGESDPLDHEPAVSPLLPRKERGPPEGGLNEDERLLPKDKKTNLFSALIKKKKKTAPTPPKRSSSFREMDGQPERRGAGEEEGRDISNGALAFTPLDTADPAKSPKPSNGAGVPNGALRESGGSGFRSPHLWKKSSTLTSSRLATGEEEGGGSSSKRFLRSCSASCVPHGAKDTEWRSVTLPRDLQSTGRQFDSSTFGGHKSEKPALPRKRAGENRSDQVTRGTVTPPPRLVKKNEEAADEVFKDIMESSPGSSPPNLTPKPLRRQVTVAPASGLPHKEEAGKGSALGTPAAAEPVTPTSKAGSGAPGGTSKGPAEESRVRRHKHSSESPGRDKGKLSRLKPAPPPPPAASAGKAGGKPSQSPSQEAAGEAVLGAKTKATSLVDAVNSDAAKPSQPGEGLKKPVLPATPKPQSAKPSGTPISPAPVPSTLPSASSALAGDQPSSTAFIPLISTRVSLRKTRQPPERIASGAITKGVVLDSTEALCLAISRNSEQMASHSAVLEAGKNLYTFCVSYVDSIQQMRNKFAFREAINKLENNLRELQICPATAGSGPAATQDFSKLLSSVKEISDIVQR

Row | Structure (SMILES) | IC50 (Bcr-Abl1) [nM] | IC50 (BTK) [nM] | IC50 (Cdk-2/cyclin E) [nM] | GI50 (K562) [nM] | GI50 (HL-60) [nM] | GI50 (MV4-11) [nM] | GI50 (Ramos) [nM] | GI50 (CEM) [nM] | melting point [°C] | IC50 (FLT3-ITD) [nM]
1 | CN1CCN(c2ccc(Nc3nc(Nc4ccccc4F)c4ncn(CC5CC5)c4n3)cc2)CC1 [Compound 4a, 9-(Cyclopropylmethyl)-N^6-(2-fluorophenyl)-N^2-(4-(4-methylpiperazin-1-yl)phenyl)-9H-purine-2,6-diamine] | 4190 ± 830 | 14700 ± 1480 | 14000 ± 2330 | 21300 ± 630 | 1820 ± 350 | 6470 ± 1820 | 15600 ± 880 | 17100 ± 400 | 149 to 152 | 
2 | CN1CCN(c2ccc(Nc3nc(Nc4cccc(Cl)c4)c4ncn(CC5CC5)c4n3)cc2)CC1 [Compound 4b, N^6-(3-Chlorophenyl)-9-(cyclopropylmethyl)-N^2-(4-(4-methylpiperazin-1-yl)phenyl)-9H-purine-2,6-diamine] | 120 ± 30 | 1280 ± 180 | 20000 ± 2070 | 1990 ± 820 | 1930 ± 1050 | 1940 ± 160 | 10600 ± 3080 | 19000 ± 1070 | 152 to 153 | 1120
3 | Cc1cccc(Nc2nc(Nc3ccc(N4CCN(C)CC4)cc3)nc3c2ncn3CC2CC2)c1 [Compound 4c, 9-(Cyclopropylmethyl)-N^2-(4-(4-methylpiperazin-1-yl)phenyl)-N^6-(m-tolyl)-9H-purine-2,6-diamine] | 100 | 1300 ± 20 | 22900 ± 2080 | 2860 ± 760 | 9790 ± 870 | 1420 ± 230 | 12500 ± 480 | 16400 ± 360 | 135 to 137 | 1500
4 | CN1CCN(c2ccc(Nc3nc(Nc4cccc(C(F)(F)F)c4)c4ncn(CC5CC5)c4n3)cc2)CC1 [Compound 4d, 9-(Cyclopropylmethyl)-N^2-(4-(4-methylpiperazin-1-yl)phenyl)-N^6-(3-(trifluoromethyl)phenyl)-9H-purine-2,6-diamine] | 1780 ± 70 | 22700 ± 2880 | 15500 ± 1700 | 4510 ± 360 | 720 ± 160 | 2840 ± 290 | 3830 ± 100 | 23780 ± 80 | 134 to 135 | 1800
5 | CN1CCN(c2ccc(Nc3nc(Nc4cccc(OC(F)(F)F)c4)c4ncn(CC5CC5)c4n3)cc2)CC1 [Compound 4e, 9-(Cyclopropylmethyl)-N^2-(4-(4-methylpiperazin-1-yl)phenyl)-N^6-(3-(trifluoromethoxy)phenyl)-9H-purine-2,6-diamine] | 420 ± 100 | 4120 ± 900 | 47700 ± 19400 | 5180 ± 1680 | 1400 ± 130 | 2880 ± 10 | 12840 ± 30 | 19500 ± 610 | 161 to 162 | 2320
6 | CN1CCN(c2ccc(Nc3nc(Nc4cccc([N+](=O)[O-])c4)c4ncn(CC5CC5)c4n3)cc2)CC1 [Compound 4g, 9-(Cyclopropylmethyl)-N^2-(4-(4-methylpiperazin-1-yl)phenyl)-N^6-(3-nitrophenyl)-9H-purine-2,6-diamine] | 110 ± 10 | 1360 ± 160 | 5620 ± 520 | 2930 ± 590 | 8510 ± 1790 | 1980 ± 460 | 4870 ± 10 | 11400 ± 3930 | 165 to 166 | 1250
7 | CN1CCN(c2ccc(Nc3nc(Nc4ccc(OC(F)(F)F)cc4)c4ncn(CC5CC5)c4n3)cc2)CC1 [Compound 4h, 9-(Cyclopropylmethyl)-N^2-(4-(4-methylpiperazin-1-yl)phenyl)-N^6-(4-(trifluoromethoxy)phenyl)-9H-purine-2,6-diamine] | 390 ± 80 | 600 ± 220 | 18200 ± 2050 | 2900 ± 910 | 1080 ± 310 | 2450 ± 90 | 11700 ± 2880 | 15000 ± 920 | 161 to 162 | 750
8 | CN1CCN(c2ccc(Nc3nc(Nc4ccc([N+](=O)[O-])cc4)c4ncn(CC5CC5)c4n3)cc2)CC1 [Compound 4j, 9-(Cyclopropylmethyl)-N^2-(4-(4-methylpiperazin-1-yl)phenyl)-N^6-(4-nitrophenyl)-9H-purine-2,6-diamine] | 540 ± 20 | 940 ± 40 | 23800 ± 6050 | 2840 ± 1040 | 420 ± 80 | 2210 ± 710 | 1300 ± 500 | 2520 ± 290 | 162 to 163 | 530
9 | CN1CCN(c2ccc(Nc3nc(Nc4ccc(Cl)c(F)c4)c4ncn(CC5CC5)c4n3)cc2)CC1 [Compound 4l, N^6-(4-Chloro-3-fluorophenyl)-9-(cyclopropylmethyl)-N^2-(4-(4-methylpiperazin-1-yl)phenyl)-9H-purine-2,6-diamine] | 200 ± 50 | 880 ± 190 | 26600 ± 3370 | 3450 ± 1610 | 3220 ± 740 | 2560 ± 640 | 11200 ± 2640 | 15400 ± 550 | 149 to 150 | 1030
10 | CN1CCN(c2ccc(Nc3nc(Nc4ccc(F)c(Cl)c4)c4ncn(CC5CC5)c4n3)cc2)CC1 [Compound 4m, N^6-(3-Chloro-4-fluorophenyl)-9-(cyclopropylmethyl)-N^2-(4-(4-methylpiperazin-1-yl)phenyl)-9H-purine-2,6-diamine] | 270 ± 50 | 2390 ± 430 | 10800 ± 3840 | 2570 ± 520 | 860 ± 110 | 1880 ± 60 | 7520 ± 410 | 13400 ± 1580 | 153 to 155 | 1540
11 | CN1CCN(c2ccc(Nc3nc(Nc4ccc(Cl)c(Cl)c4)c4ncn(CC5CC5)c4n3)cc2)CC1 [Compound 4n, 9-(Cyclopropylmethyl)-N^6-(3,4-dichlorophenyl)-N^2-(4-(4-methylpiperazin-1-yl)phenyl)-9H-purine-2,6-diamine] | 70 ± 10 | 3900 ± 50 | 12900 ± 1700 | 5540 ± 1560 | 1520 ± 340 | 4810 ± 1540 | 8020 ± 1300 | 17540 ± 80 | 132 to 133 | 2530
12 | CN1CCN(c2ccc(Nc3nc(Nc4ccc(OC(F)(F)F)c([N+](=O)[O-])c4)c4ncn(CC5CC5)c4n3)cc2)CC1 [Compound 4o, 9-(Cyclopropylmethyl)-N^2-(4-(4-methylpiperazin-1-yl)phenyl)-N^6-(3-nitro-4-(trifluoromethoxy)phenyl)-9H-purine-2,6-diamine] | 440 ± 120 | 5030 ± 990 | 12600 ± 2120 | 2600 ± 1250 | 1680 ± 10 | 1490 ± 330 | 4460 ± 380 | 14800 ± 1320 | 144 to 145 | 2670
13 | CC(C)CCn1cnc2c(Nc3ccccc3)nc(Nc3ccc(N4CCN(C)CC4)cc3)nc21 [Compound 5a, 9-Isopentyl-N^2-(4-(4-methylpiperazin-1-yl)phenyl)-N^6-phenyl-9H-purine-2,6-diamine] | 1780 ± 200 | 2220 ± 960 | 22100 ± 380 | 8930 ± 5520 | 1520 ± 610 | 730 ± 250 | 10100 ± 2980 | 16400 ± 2410 | 153.1 to 155.2 | 230
